Experimental findings from article PMC10725991, “Kaempferol is a novel antiviral agent against channel catfish virus infection through blocking viral attachment and penetration in vitro” (Frontiers in Veterinary Science, 2023) are described below.

In assay [1] the test system is CCV (strain VR-665) in CCO cells. The assay is described as follows: Anti-CCV replication assay of kaempferol, RT-qPCR. In kind it is cell-based, Channel catfish virus (CCV, Ictalurid herpesvirus 1). The procedure: The CCO cells were infected with the CCV at 10^3 TCID50/ml at 28°C for 1 h. Then, the cell culture medium was replaced using isopycnic DMEM medium containing various concentrations kaempferol (2.5, 5, 7.5, 10, 12.5, and 15 μg/mL). The cells without exposure to kaempferol and CCV were set as the mock control. CCV-infected cells served as a negative control. 24 and 36 h post-infection, the cells were collected and subjected to the RT-qPCR and western blot analysis for the viral gene and protein expression. Meanwhile, the cells were treated as described above for the determination of virus titer. […]
(§1) For RT-qPCR, the total RNA was isolated from CCV-infected cells using RnaExTM (Trizol)^a reagent (GENERAY, China), and reversed transcribed applying a HiScript III RT SuperMix with gDNA wiper (Vazyme, China) following the manufacturer’s instructions. Quantitative PCR was performed with a LightCycler 96 Real-Time PCR Detection System (Roche, USA) using ChamQ Universal SYBR qPCR Master Mix (Vazyme, China) with the following cycle conditions: 95°C for 30 s, followed by 40 cycles of 95°C for 10 s and 60°C for 30 s. […] Fold changes of the selected gene vs 18 s (internal reference) were calculated by the 2^−△△Ct method.
Figure 3 The anti-CCV activity by different concentration of kaempferol in vitro. […] The p value was determined by *p < 0.05, **p < 0.01.
Background: In qPCR the cycle at which signal appears reflects the starting amount.

The next assay concerns CCV in CCO cells. The assay can be described thus: Virus penetration assay. In kind it is cell-based, Channel catfish virus (CCV, Ictalurid herpesvirus 1). The settings on record: kaempferol 15 μg/mL, 24 h. The procedure:
Confluent CCO cells in 24-well plates were prechilled at 4°C, and then infected with CCV at 4°C for 1 h. After triple washing with pre-cooled PBS, the cells were treated with kaempferol (15 μg/mL) or medium at 28°C for 4 h. The compound dilutions were aspirated and the cells were rinsed with citrate buffer (pH 3.0) in order to inactivate and remove not penetrated virus. After incubated at 28°C for 24 h, the cells were collected for subsequent experiments, including RT-qPCR and viral titer.
Measurement of viral titer was described previously ([5]). In brief, CCO cells were cultured in 96-well plates, and they were infected with 10-fold serially diluted samples that were collected previously. At 72 h post-infection, the cells were directly observed under an inverted microscope. […]
as §1, with “method. […]” for “method.”

Take `O=c1c(O)c(-c2ccc(O)cc2)oc2cc(O)cc(O)c12` [Kaempferol]: in assay [1] (24 h post viral infection, kaempferol 2.5-15 μg/mL, RT-qPCR), the “inhibitory effect of CCV-ORF 39 and CCV-ORF 59” value was “over 85%”. In addition, in assay [1] (36 h post viral infection, kaempferol 10 μg/mL to 15 μg/mL), the “viral mRNA levels compared with the control group” value is given as “significantly lower”. In addition, the “down-regulation of viral internalization (CCV ORF 39/ORF 59, RT-qPCR) vs CCV control” value with CCV in CCO cells (4 h at 28°C) is “more than 50%”. For the same compound, the “production of intracellular virus (virus titer), penetration assay” value in the assay on CCV in CCO cells is given as “significantly reduced”.
